{
  "source": "patent US9738902B2",
  "about": "“Modified PYR/PYL receptors activated by ligands” (priority 2013, dated 2017)",
  "key": {"[1]": {"test_system": "MDP1 and MDP2 transgenic lines (35S::PYR1^MANDI)", "test": "thermal imaging of leaf temperature", "assay_type": "in vivo, Arabidopsis", "details": "1 μM mandipropamid, 24 hours after first application"}, "[2]": {"target": "T1, PYR1 Y58H K59R F108A S122G (Arabidopsis thaliana, UniProt O49686, F108A/K59R/S122G/Y58H)", "T1 construct": "expressed in transfected cells; host or cells: S. cerevisiae Y190 pACT-HAB1", "T1 sequence (O49686 whole entry Y58H/K59R/F108A/S122G)": "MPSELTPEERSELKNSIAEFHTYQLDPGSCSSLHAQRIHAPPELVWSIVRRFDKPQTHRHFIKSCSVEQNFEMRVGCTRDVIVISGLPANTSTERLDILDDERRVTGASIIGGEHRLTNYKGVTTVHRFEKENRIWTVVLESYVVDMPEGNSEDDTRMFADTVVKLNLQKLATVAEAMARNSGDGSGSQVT", "T1 sequence (Q9CAJ0 23-511 partner)": "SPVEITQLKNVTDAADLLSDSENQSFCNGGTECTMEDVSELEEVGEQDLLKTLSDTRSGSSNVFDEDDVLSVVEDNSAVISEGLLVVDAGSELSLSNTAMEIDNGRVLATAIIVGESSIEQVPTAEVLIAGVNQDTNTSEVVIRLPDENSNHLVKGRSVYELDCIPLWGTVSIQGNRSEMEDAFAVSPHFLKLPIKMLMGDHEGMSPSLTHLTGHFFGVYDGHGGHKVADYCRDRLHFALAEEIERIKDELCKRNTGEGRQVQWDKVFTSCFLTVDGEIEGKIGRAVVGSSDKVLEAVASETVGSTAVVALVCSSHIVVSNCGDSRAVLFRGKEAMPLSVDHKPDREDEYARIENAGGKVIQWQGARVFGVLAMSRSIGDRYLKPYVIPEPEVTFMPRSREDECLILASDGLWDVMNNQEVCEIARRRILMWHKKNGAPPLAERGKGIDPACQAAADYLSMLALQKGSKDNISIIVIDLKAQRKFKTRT", "test": "Y2H Recombination Mutagenesis (HAB1, X-gal)", "assay_type": "cell-based", "source_text": "As a second approach, we used recombination-based mutagenesis to search for mutant combinations that enhance the sensitivity of PYR1^K59R,F108A,S122G to mandipropamid. Nucleotide excision and exchange technology (NExT) (Müller et al., 2005) was used to mutagenize an equal amount of PYR1^K59R,F108A,S122G template with an equal amount of template DNA that was made by pooling plasmid DNA from the NNK plasmid libraries made above for each of the 23 ligand-contacting residues in the PYR1^K59R,F108A,S122G backbone. Thus, PYR1^K59R,F108A,S122G was mutagenized with recombination-based mutagenesis using a library of pocket site mutations. An ˜200,000 member library of mutagenized clones was generated and was transformed into the MAV99 pACT-HAB1 reporter strain. Selections were conducted on plates containing 0.5 μM mandipropamid and appropriate nutrients and amino acids. To establish if strain growth was ligand dependent, the positive clones were subsequently tested for growth on selective plates lacking mandipropamid. Next, plasmids were isolated from strains showing ligand-dependent growth and the mandipropamid sensitivity of mutant receptors characterized using X-gal staining (after transformation into the into the Y190 pACT-HAB1 reporter strain). […]"}},
  "data": [
    {"smiles": "C#CCOc1ccc(CCNC(=O)C(OCC#C)c2ccc(Cl)cc2)cc1OC", "note": "(centres unmarked) [Mandipropamid, mandipropamid]", "values": [
      {"measurement": "leaf temperature", "setting": "[1]", "result": "increased leaf temperature"},
      {"measurement": "Threshold", "setting": "[2]", "result": 0.25, "unit": "µM"}
    ]}
  ]
}
